Columns and labels:
[1] = test system: Rat SNL Model; experiment: SNL model of neuropathic pain, mechanical hyperalgesia testing; assay type: in vivo
Experimental: The animals were anesthetized with isoflurane, the left L5 transverse process was removed, and the L5 and L6 spinal nerves were tightly ligated with 6-0 silk suture. The wound was then closed with internal sutures and external staples. Wound clips were removed 10-11 days following surgery.
Mechanical hyperalgesia testing: Baseline, post-injury and post-treatment values for […] mechanical sensitivity were evaluated using a Paw Pressure Analgesymeter (7200, Ugo Basile, Comerio, Italy) which generates a linearly increasing mechanical force. The mechanical nociceptive stimulus was applied to the plantar surface of the hind paws by a dome-shaped plastic tip placed between the 3rd and 4th metatarsus. […] Mechanical thresholds were defined as the force in grams at the first pain behavior, which includes paw withdrawal, struggle and/or vocalization. Paw pressure test was performed on each hind paw for each animal. The mean and standard error of the mean (SEM) were determined for each paw, in each treatment group. Mechanical hyperalgesia was evaluated 24 days post-surgery.
Ten rats were studied per group and the tests were performed blind. (1R,4S)-4-(3,4-dichlorophenyl)-1,2,3,4-tetrahydro-1-naphthalenamine (P) was evaluated at 3 doses (5, 10 and 15 mg/kg), administered orally and compared with a vehicle control group. Gabapentin (100 mg/kg) and duloxetine (30 mg/kg) administered orally under the same experimental conditions, were used as comparator substances. Mechanical allodynia and hyperalgesia testing were conducted at baseline and 1, 2 and 4 hours after test article administration.

[2] = biological target: T1, M5 (Homo sapiens, UniProt P08912); experiment: In vitro radioligand binding assay, M5; conditions: read-out: Ki, M5
T1 sequence (P08912 1-532): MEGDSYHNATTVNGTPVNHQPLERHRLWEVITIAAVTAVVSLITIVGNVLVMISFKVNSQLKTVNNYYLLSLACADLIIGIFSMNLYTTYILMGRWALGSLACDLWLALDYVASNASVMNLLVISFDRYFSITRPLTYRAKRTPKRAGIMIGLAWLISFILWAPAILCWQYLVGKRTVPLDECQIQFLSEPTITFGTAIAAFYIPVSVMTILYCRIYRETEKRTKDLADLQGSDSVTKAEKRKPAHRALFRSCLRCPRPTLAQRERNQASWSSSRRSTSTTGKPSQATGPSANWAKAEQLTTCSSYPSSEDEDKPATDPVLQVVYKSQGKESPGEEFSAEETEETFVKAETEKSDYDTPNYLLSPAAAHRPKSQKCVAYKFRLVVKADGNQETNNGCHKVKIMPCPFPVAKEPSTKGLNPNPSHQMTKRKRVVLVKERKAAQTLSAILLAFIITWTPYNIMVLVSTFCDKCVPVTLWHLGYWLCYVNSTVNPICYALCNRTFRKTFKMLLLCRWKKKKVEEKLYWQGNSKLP

[3] = test system: Beagle dogs; experiment: Cardiovascular safety study in conscious telemetered dogs; assay type: in vivo; conditions: single oral doses 0.5, 1.5 and 5 mg/kg
Experimental: There were four animals/compound and each animal within the treatment group was exposed to the three doses (plus a empty capsule control), in a dose ramp-up manner with a minimum of 72 hours between doses.

[4] = biological target: T2, 5-HT1A (Homo sapiens, UniProt P08908); experiment: In vitro radioligand binding assay, 5-HT1A
T2 sequence (P08908 1-422): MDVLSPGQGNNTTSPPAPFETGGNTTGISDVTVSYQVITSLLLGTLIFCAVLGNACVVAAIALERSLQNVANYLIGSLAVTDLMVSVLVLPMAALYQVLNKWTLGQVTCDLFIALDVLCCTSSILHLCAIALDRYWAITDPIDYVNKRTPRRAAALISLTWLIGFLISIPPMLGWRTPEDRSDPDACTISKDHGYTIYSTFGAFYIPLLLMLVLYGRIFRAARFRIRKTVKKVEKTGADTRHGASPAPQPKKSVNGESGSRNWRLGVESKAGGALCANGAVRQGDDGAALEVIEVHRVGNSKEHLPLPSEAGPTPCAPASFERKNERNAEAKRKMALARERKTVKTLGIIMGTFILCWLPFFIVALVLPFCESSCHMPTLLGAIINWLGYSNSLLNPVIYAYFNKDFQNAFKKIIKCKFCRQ

[5] = biological target: D1 (Homo sapiens, UniProt P21728); experiment: In vitro radioligand binding assay, D1
[6] = biological target: 5-HT2C (Homo sapiens, UniProt P28335); experiment: In vitro radioligand binding assay, 5-HT2C
[7] = biological target: Na^+ Channel Site 2; experiment: In vitro radioligand binding assay, Na+ channel site 2
[8] = biological target: H2 (Homo sapiens, UniProt P25021); experiment: In vitro radioligand binding assay, H2; conditions: read-out: Ki, H2
[9] = test system: rats; experiment: Formalin test, second test with Automated Nociception Analyzer; assay type: in vivo, rat; conditions: automated detection; for Number of Flinches, Acute Phase (Mean ± SEM): 0-10 minutes after formalin; for Number of Flinches, Late Phase (Mean ± SEM): 10-60 minutes after formalin
Experimental: In a second test, flinching behaviors were measured for 90 minutes after formalin injection using an automated detection system. […] This device used a magnetic detection system to measure paw movements, called “flinches”. Small metal bands were attached to the left hind paw of rats just before placement into individual circular test chambers 30 minutes prior to formalin injection. […] In addition to duloxetine, morphine (6 mg/kg, subcutaneously) was used as a comparator substance. Animals were treated with morphine 30 minutes prior to the formalin injection. To initiate the experiment, the rats were injected with formalin subcutaneously on the dorsal surface of the left hind paw and placed in the test chambers. The instrument subsequently recorded rapid foot movements counted in one minute epochs.

[10] = test system: Long-Evans derived rats; experiment: Spontaneous locomotor activity study; assay type: in vivo, rat; conditions: mean ± SEM
Experimental: The effects on locomotor activity were studied in Long-Evans derived rats following protocol outlined in Dews P., Br. J. Pharmacol., 8: 46 (1953).
This effect was still evident 2 hours following drug administration. On the basis of these studies, CNS effects and long duration of action may be anticipated at sufficient clinical doses.

[11] = biological target: M2 (Homo sapiens, UniProt P08172); experiment: In vitro radioligand binding assay, M2
Sequence of M2 (P08172 whole entry): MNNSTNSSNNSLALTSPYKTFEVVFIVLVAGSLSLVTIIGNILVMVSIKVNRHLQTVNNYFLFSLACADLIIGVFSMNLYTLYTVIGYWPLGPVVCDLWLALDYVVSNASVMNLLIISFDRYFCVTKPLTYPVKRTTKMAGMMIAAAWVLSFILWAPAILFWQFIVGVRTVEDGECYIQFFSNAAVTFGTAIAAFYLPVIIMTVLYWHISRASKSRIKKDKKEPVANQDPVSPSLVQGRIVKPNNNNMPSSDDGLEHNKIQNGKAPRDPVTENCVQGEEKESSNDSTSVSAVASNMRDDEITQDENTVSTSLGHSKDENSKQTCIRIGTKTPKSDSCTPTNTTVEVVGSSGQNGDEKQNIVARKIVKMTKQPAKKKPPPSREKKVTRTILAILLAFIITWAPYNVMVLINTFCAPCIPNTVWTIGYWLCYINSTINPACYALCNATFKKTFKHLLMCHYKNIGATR

Sequence of 5-HT2C (P28335 33-458, species assumed): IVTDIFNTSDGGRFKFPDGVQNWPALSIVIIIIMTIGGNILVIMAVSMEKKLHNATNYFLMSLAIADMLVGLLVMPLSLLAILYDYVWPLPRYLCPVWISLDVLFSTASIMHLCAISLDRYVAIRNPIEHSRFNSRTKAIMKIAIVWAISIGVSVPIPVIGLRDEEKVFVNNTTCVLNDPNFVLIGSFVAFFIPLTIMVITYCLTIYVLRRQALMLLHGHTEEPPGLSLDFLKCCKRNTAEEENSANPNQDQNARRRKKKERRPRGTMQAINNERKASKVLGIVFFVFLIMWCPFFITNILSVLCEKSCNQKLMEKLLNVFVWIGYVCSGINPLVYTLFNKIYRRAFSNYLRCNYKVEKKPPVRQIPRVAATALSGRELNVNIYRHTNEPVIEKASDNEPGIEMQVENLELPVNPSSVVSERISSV
Sequence of H2 (P25021 whole entry): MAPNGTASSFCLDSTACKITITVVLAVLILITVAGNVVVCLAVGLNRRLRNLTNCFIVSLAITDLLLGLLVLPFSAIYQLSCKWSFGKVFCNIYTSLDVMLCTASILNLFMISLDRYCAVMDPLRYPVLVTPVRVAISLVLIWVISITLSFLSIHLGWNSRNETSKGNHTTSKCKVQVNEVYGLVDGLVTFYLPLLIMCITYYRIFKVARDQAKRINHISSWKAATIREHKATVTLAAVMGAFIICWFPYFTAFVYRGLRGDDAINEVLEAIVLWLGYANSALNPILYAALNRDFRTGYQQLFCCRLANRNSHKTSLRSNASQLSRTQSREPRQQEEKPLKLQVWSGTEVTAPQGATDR
Sequence of D1 (P21728 whole entry): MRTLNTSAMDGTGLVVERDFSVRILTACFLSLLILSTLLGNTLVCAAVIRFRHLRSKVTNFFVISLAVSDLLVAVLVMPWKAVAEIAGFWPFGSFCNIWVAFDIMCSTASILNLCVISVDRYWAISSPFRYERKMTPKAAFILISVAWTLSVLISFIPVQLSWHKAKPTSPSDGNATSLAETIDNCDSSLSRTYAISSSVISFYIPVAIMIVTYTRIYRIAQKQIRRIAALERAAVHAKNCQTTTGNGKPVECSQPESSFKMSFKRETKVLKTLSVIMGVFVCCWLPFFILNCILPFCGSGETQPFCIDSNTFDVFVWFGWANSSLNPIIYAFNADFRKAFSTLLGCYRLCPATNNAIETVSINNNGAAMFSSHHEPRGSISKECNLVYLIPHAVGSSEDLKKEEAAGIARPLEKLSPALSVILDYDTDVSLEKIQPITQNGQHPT

N[C@@H]1CC[C@@H](c2ccc(Cl)c(Cl)c2)c2ccccc21 [Compound P, (1R,4S)-trans 4-(3,4-dichlorophenyl)-1,2,3,4-tetrahydro-1-napthalenamine]
Mechanical Hyperalgesia, Paw Pressure Threshold (Mean ± SEM) ([1]; 5 mg/kg PO, 0 h (Baseline)): 147 ± 17 g
Mechanical Hyperalgesia, Paw Pressure Threshold (Mean ± SEM) ([1]; 5 mg/kg PO, 1 h): 183 ± 35 g
Mechanical Hyperalgesia, Paw Pressure Threshold (Mean ± SEM) ([1]; 5 mg/kg PO, 2 h): 240 ± 32 g
Mechanical Hyperalgesia, Paw Pressure Threshold (Mean ± SEM) ([1]; 5 mg/kg PO, 4 h): 257 ± 37 g
Mechanical Hyperalgesia, Paw Pressure Threshold (Mean ± SEM) ([1]; 10 mg/kg PO, 0 h (Baseline)): 152 ± 18 g
Mechanical Hyperalgesia, Paw Pressure Threshold (Mean ± SEM) ([1]; 10 mg/kg PO, 1 h): 213 ± 32 g
Mechanical Hyperalgesia, Paw Pressure Threshold (Mean ± SEM) ([1]; 10 mg/kg PO, 2 h): 309 ± 27 g
Mechanical Hyperalgesia, Paw Pressure Threshold (Mean ± SEM) ([1]; 10 mg/kg PO, 4 h): 282 ± 30 g
Mechanical Hyperalgesia, Paw Pressure Threshold (Mean ± SEM) ([1]; 15 mg/kg PO, 0 h (Baseline)): 164 ± 22 g
Mechanical Hyperalgesia, Paw Pressure Threshold (Mean ± SEM) ([1]; 15 mg/kg PO, 1 h): 281 ± 37 g
Mechanical Hyperalgesia, Paw Pressure Threshold (Mean ± SEM) ([1]; 15 mg/kg PO, 2 h): 251 ± 37 g
Mechanical Hyperalgesia, Paw Pressure Threshold (Mean ± SEM) ([1]; 15 mg/kg PO, 4 h): 269 ± 37 g
Ki [2]: 8.4 µM
effect on heart rate, blood pressure or ECG parameters (including QTc) [3]: no effect
Ki [4]: 1.1 µM
Ki [5]: 6.8 µM
Ki [6]: 5.1 µM
Ki [7]: 1 µM
Ki [8]: 4 µM
Number of Flinches, Acute Phase (Mean ± SEM) ([9]; 5 mg/kg PO): 194 ± 33
Number of Flinches, Late Phase (Mean ± SEM) ([9]; 5 mg/kg PO): 1263 ± 181
Number of Flinches, Acute Phase (Mean ± SEM) ([9]; 10 mg/kg PO): 143 ± 27
Number of Flinches, Late Phase (Mean ± SEM) ([9]; 10 mg/kg PO): 1679 ± 163
Number of Flinches, Acute Phase (Mean ± SEM) ([9]; 15 mg/kg PO): 212 ± 40
Number of Flinches, Late Phase (Mean ± SEM) ([9]; 15 mg/kg PO): 2236 ± 153
Total Activity Counts, 71–80 Minutes ([10]; 2.5 mg/kg single i.p. dose): 49 ± 6
Total Activity Counts, 91–100 Minutes ([10]; 2.5 mg/kg single i.p. dose): 54 ± 9
Total Activity Counts, 111–120 Minutes ([10]; 2.5 mg/kg single i.p. dose): 34 ± 9
Total Activity Counts, Total 1st Hour ([10]; 2.5 mg/kg single i.p. dose): 577 ± 54^1
Total Activity Counts, Total 2nd Hour ([10]; 2.5 mg/kg single i.p. dose): 257 ± 36
Total Activity Counts, 71–80 Minutes ([10]; 5.0 mg/kg single i.p. dose): 38 ± 3
Total Activity Counts, 91–100 Minutes ([10]; 5.0 mg/kg single i.p. dose): 26 ± 26
Total Activity Counts, 111–120 Minutes ([10]; 5.0 mg/kg single i.p. dose): 23 ± 14
Total Activity Counts, Total 1st Hour ([10]; 5.0 mg/kg single i.p. dose): 444 ± 91
Total Activity Counts, Total 2nd Hour ([10]; 5.0 mg/kg single i.p. dose): 160 ± 32
Ki [11]: 5 µM

Reference: patent US20070282007A1, “TREATMENT OF PAIN DISORDERS WITH trans 4-(3,4-DICHLOROPHENYL)-1,2,3,4-TETRAHYDRO-1-NAPHTHALENAMINE AND ITS FORMAMIDE” (SEPRACOR INC., priority 2006, published 2007)
